Entries after “also recorded” stand apart in the source; their conditions may differ.
System: soil urease
Assay: Urea hydrolysis in bands of urea in soil (banded soil system urease inhibition test)
Format: biochemical
Conditions: for % inhibition, 3 days (as measured by percent urea unhydrolyzed) / % inhibition, 6 days (as measured by percent urea unhydrolyzed): Hastings silt loam soil, 25° C., inhibitor 41 mg/band with urea 410 mg/band (10% of urea wt/wt), two replicates; for % inhibition, 3 days (as measured by percent urea unhydrolyzed): 3 days incubation; for % inhibition, 6 days (as measured by percent urea unhydrolyzed): 6 days incubation; for urease inhibition effectiveness in soil (in words): banded soil system, three- and six-day tests, compared with PPDA
Method: Test compounds in Example I, infra, were evaluated in soil systems by an alternative procedure in which powdered mixtures of urea and test compounds were applied in narrow bands in the soil rather than being mixed throughout the soil. The banded configuration is not only applicable to banded applications but also results in concentration gradients of urea, urea hydrolysis products, test compounds, and test compound decomposition products similar to those in the immediate vicinity of urea granules containing test compounds. Another advantage of the banded configuration compared with mixing throughout the soil is that slightly soluble test compounds can be easily band applied, whereas it is difficult to achieve a known degree of mixing of a small quantity of slightly soluble test compound with soil. The banded configuration also enables testing for urease inhibition under realistic soil conditions prior to the development of techniques for cogranulating a wide range of test compounds with urea.
Specifics of the procedure for evaluating test compounds in Example I were as follows. Urease-active soil (Hastings silt loam) was moistened to a moisture content of 20% (dry weight basis) and preincubated at room temperature for two days. Plexiglass containers (6×6×6 cm) were one-half filled with soil and packed to a bulk density of 1.1 g/cm^3. Urea or urea plus inhibitor (thoroughly mixed) was distributed in a narrow band 6 cm long and about 0.5 cm wide on the soil surface. The containers then were filled with soil, again packing to a bulk density of 1.1 g/cm^3. The containers were incubated at 25° C. for the desired reaction period, after which the containers were frozen to about -5° C. to halt urea hydrolysis. Immediately prior to extracting the remaining urea from the soil, said soil was allowed to thaw. Soil from each container was thoroughly mixed, and a 10-g sample was extracted with 100 ml of 2M KCl containing phenylmercuric acetate to prevent urea hydrolysis during handling [L. A. Douglass, J. M. Bremner, Soil Sci. Soc. Am. Proc. 34, 859-862 (1970a)]. Urea in the extracts was determined with an automated version of the colorimetric procedure [L. A. Douglass, J. M. Bremner, Anal. Letters 3, 79-87 (1970b)].
Urease-active soil (Hastings silt loam) was moistened to a moisture content of 20% and preincubated at room temperature for two days. Plexiglass containers (6×6×6 cm) were one-half filled with soil and packed to a bulk density of 1.1 g/cm^3. Urea or urea plus inhibitor (thoroughly mixed) was distributed in a narrow band some 6 cm long and about 0.5 cm wide on the surface of the soil. The containers then were filled with soil and again packed to a bulk density of 1.1 g/cm^3. The containers were incubated at 25° C. for the desired reaction period.
The soil from each container was thoroughly mixed, and 10-g sample was extracted with 100 ml of 2M KCl containing 5 ppm phenylmercuric acetate to prevent urea hydrolysis during handling [L. A. Douglass, J. M. Bremner, Soil Sci. Soc. Am. Proc.34, 859-862 (1970); L. A. Douglass, J. M. Bremner, Anal. Letters 3, 79-87 (1970b)]. The urea in the extracts was determined colorimetrically as a measure of the unhydrolyzed urea.

Row | Structure (SMILES) | % inhibition, 3 days (as measured by percent urea unhydrolyzed) (Test Series I) [%] | % inhibition, 6 days (as measured by percent urea unhydrolyzed) (Test Series I) [%] | % inhibition, 3 days (as measured by percent urea unhydrolyzed) (Test Series II) [%] | % inhibition, 6 days (as measured by percent urea unhydrolyzed) (Test Series II) [%] | urease inhibition effectiveness in soil (in words)
1 | O=[N+]([O-])c1ccc(SSc2ccc([N+](=O)[O-])cn2)nc1 [DTNP, 2,2-Dithio-5-nitropyridine] | 8.6 | 0.5 | – | – | –
2 | [O-][n+]1ccccc1S [MPNO, 2-Mercaptopyridine-N-Oxide] | – | – | 76.8 | 32.2 | excellent urease inhibition characteristics
3 | [O-][n+]1ccccc1SSc1cccc[n+]1[O-] [DTPNO, 2,2-Dithiobis-pyridine-N-oxide] | 92.2 | 46.4 | 92.6 | 38.9 | as effective an inhibitor as PPDA; also recorded: excellent urease inhibition characteristics
4 | Sc1ccccn1 [MP, 2-Mercaptopyridine] | – | – | 80.2 | 37.8 | excellent urease inhibitors
5 | Sc1ncccn1 [MPM, 2-Mercaptopyrimidine] | – | – | 72.8 | 44.6 | excellent urease inhibitors
6 | NP(N)(=O)Oc1ccccc1 [PPDA, Phenyl phosphorodiamidate] | 95.6 | 59.6 | 92.1 | 54.2 | –
7 | c1ccc(SSc2ccccn2)nc1 [AT, Aldrithiol] | 42.9 | 0.7 | – | – | possesses even the smallest urease activity
8 | Oc1cccnc1S [MPOL, 2-Mercapto-3-pyridinol] | – | – | 40.1 | 0 | significantly lower inhibition
9 | [O-][n+]1ccccc1 [PNO, Pyridine-N-Oxide] | – | – | 11.3 | 0 | significantly lower inhibition
10 | c1ccc(-c2ccccn2)nc1 [DP, 2,2'-Dipyridyl] | 12.0 | 0.2 | – | – | –

Source: US4932991A, “Thiopyridine-N-oxides, thiopyridines, and thiopyrimidines as urease inhibitors” (Tennessee Valley Authority, priority 1988, dated 1990)
